Data from publication PMC4742222, “Discovery of Novel Hepatitis C Virus NS5B Polymerase Inhibitors by Combining Random Forest, Multiple e-Pharmacophore Modeling and Docking” (PLoS ONE, 2016).
Where two headings read alike, the source gives them in different places.

Experiments:
[1] = Cell proliferation assay (WST-1); format: cell-based; conditions: human
Procedure: (§1) Huh7.5.1 cells were seeded in 96-well plates at a density of 2 × 10^4 cells per well overnight. Cells were incubated with serial diluted compounds for 48 h. The viability of Huh7.5.1 cells was determined in 96-well tissue culture plates using the cell proliferation reagent WST-1 (Roche), and absorbance (OD450 / reference OD630) was measured to detect the cytotoxicity of compounds according to the manufacturer’s protocol for the Cell Proliferation Reagent WST-1. CC50 is the concentration of the compound at which the cell growth was inhibited by 50%. The values of CC50 were plotted by the GraphPad Prism 5 software.

HCV (JFH-1, genotype 2a) [2] = test: microbe, parasite or virus in culture; format: cell-based, Hepatitis C virus; conditions: for EC50: luminescence reduced by 50% in Huh7.5.1 cells, mean of three experiments, read-out: Anti-HCV activity virus assay JFH1 EC50; for SI (selective index): ratio of CC50 to EC50
Source text: The HCV virus assay was constructed by using the method developed as previously described, albeit with a slight modification. Briefly, the plasmid of pRluc-JFH-1 was constructed as following. Based on the plasmid of pJFH-1, as a gift from Apath,L.L.C., a humanized Renilla luciferase reporter gene was introduced into the C-terminus of NS5A in the JFH-1 genome. The plasmid phRluc-JFH-1 was made via digestion with the XbaI restriction enzyme and used as a template for RNA transcription. The virus transcripts were prepared in vitro by using the Ambion MEGAscript Kits, and then 10 μg of RNA was mixed with […] of Huh7.5.1, which was gifted by Jin Zhong (Institute Pasteur of Shanghai, Chinese Academy of Science), at a concentration of 1×10^7 cells/ml. After electroporation, the Huh7.5.1 cells containing virus transcripts were seeded in a 10-cm dish. After the cells were cultured for 4 days, the supernatant was collected and filtered to obtain the stock solution of the hRluc-JFH-1 virus. To obtain the virus titer, the virus stocks were diluted at a gradient of 1:10, and the Huh7.5.1 cells were incubated for 48h at 37°C. Then, the cells were harvested, and the luminescence was detected via the manufacturer’s protocol of the Renilla-Glo™ Luciferase Assay System (Promega).
Huh7.5.1 cells were seeded in 96-well plates at a density of 2 ×10^4 cells per well at 37°C overnight. All of the synthetic compounds were diluted with DMSO to 10 mM of stock solution. The initial concentration of compounds was 20 μM and then diluted at a gradient of 1:4 to concentrations ranging from 20 μM to 0.02 μM, containing 0.5% DMSO. For the HCVcc system, serial diluted compounds were mixed with a certain titer of HCVcc-hRluc-JFH1 virus, and the final concentration of HCVcc-hRluc-JFH1 virus titer was diluted to the numbers of relative luminescence units (RLU) ranging from 20,000 to 50,000 RLU and then added to the Huh7.5.1 cells. Then, the cells were cultured for 2 days at 37°Cand harvested. The luminescence was detected via the manufacturer’s protocol of the Renilla-Glo™ Luciferase Assay System. EC50 is the concentration of the compound at which the HCV luminescence level in the Huh7.5.1 cells is reduced by 50%. The values of EC50 were plotted by the GraphPad Prism 5 software.

HCV NS5B protein = target: T1, HCV NS5B protein (Hepatitis C virus genotype 1b, UniProt P26663); test: biochemical; conditions: for IC50: in vitro enzyme activity, 2'-O-Me-CTP positive control, read-out: NS5B inhibition assay IC50
T1 construct: Purified HCV NS5B protein and HCV (-) 3’ T RNA template were obtained as described previously
T1 sequence (P26663 2420-3010): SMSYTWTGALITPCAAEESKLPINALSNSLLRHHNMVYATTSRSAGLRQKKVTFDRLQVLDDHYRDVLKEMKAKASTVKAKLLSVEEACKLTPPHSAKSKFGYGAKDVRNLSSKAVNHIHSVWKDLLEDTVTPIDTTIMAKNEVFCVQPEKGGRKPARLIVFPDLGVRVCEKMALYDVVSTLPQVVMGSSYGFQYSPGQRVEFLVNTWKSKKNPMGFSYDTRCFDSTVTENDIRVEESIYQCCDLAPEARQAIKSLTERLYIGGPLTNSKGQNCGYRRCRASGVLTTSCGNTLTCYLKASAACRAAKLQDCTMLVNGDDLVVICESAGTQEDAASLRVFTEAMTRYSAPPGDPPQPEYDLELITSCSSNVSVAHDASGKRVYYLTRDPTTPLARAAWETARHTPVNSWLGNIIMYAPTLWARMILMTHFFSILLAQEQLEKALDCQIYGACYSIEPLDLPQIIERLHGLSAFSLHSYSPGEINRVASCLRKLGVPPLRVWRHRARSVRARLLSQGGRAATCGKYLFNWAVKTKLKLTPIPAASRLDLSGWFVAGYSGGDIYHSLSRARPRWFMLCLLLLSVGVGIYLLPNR
Procedure: The inhibitory effects of the tested reagents on in vitro NS5B activity were determined by NS5B-catalyzed RNA synthesis assay as described previously. Purified HCV NS5B protein and HCV (-) 3’ T RNA template were obtained as described previously. The tested reagents were added at a variety of concentrations in 50 μl reaction mixture consisting of 20 mM HEPES (pH 8.0), 1.5 mM MnCl2, 100 mM ammonium acetate, 1 mM DTT, 500 μM GTP, 250 μM each of CTP, ATP and UTP, 40U of RNasin (Biostar, Canada), 2 μg/ml HCV (-) 3’ TRNA template and 300 ng purified NS5B protein. After 2 h at 30°C, the reaction was stopped by 100 mM EDTA and RNA was purified using the RNaid Kit (Qbiogene). To determine NS5B-catalyzed RNA synthesis, real-time RT-PCR was performed. cDNA was synthesized using AMV-reverse transcriptase (TAKARA, Japan) and the primer targeted to NS5B-catalyzed RNA product (5’-[…]-3’) and then digested with RNAase. PCR was carried out using RNA product–specific primers (forward, […], reverse 5’-[…]-3’, probe, 5’-[…]-3’) and TaqMan RT-PCR Kit according to the instruction. 50% inhibitory concentrations (IC50) were calculated using Statistical SPSS program version 11.5 by probit analysis of regression.

NS5B protein = NS5B protein (Hepatitis C virus genotype 1b, UniProt P26663); test: biochemical; format: binding; conditions: for Kd: dissociation equilibrium constant, NS5B immobilized on CM5 chip, read-out: SPR on NS5B KD
Chain of NS5B protein (P26663 2420-3010): as above
Procedure: The SPR experiments were performed using a Biacore T200 optical biosensor (Biacore Life Sciences, GE Healthcare). The NS5B protein at 50 μg/ml prepared in buffer of 10 mM sodium acetate (pH 5.5) was immobilized by standard amine coupling to a CM5 biosensor chip. The compounds were injected for 60 s at a flow rate of 30 μL/min using in concentration series between 1 and 250 μM in running buffer (1 × PBS with 5% DMSO). The dissociation was monitored for 300 s. Raw data collected on an SPR biosensor were further processed to eliminate any artifacts such as nonspecific binding and discrepancies in buffer composition. All data processing and analysis was performed using the Biacore T200 Evaluation Software.

Huh7.5.1 cells = test: Cell proliferation assay (WST-1); format: cell-based
Procedure: as §1

HCV (JFH-1, genotype 2a) [3] = format: cell-based, Hepatitis C virus; conditions: at a concentration of 12.5 μM
NS5B polymerase = conditions: S2 Table, validation set of the RF model; ref DOI in column Reference (DOI); cited from earlier work
[4] = Huh7.5.1 cells, 48 h, WST-1, mean of three experiments, read-out: CC50

| Compound | CC50 at 48 h [1, 4] [µM] | EC50 (HCV (JFH-1, genotype 2a) [2]; Hepatitis C virus, Huh-7.5.1) [µM] | IC50 (HCV NS5B protein) [µM] | Kd (NS5B protein) [µM] | SI (selective index) (HCV (JFH-1, genotype 2a) [2]) | further results |
| --- | --- | --- | --- | --- | --- | --- |
| COc1cc(C(=O)NNS(=O)(=O)c2ccccc2)cc(OCc2ccccc2)c1OC [N1] | > 100 | > 12.5 | 3.63 | 62.9 |  |  |
| O=C(CSc1nc2ccccc2o1)Nc1cc(C(F)(F)F)cc(C(F)(F)F)c1 [N2] | 51.3 | 1.61 | 3 | 4.67 | 32.1 | cellular cytotoxicity (Huh7.5.1 cells; at a concentration of 12.5 μM): no cellular cytotoxicity; HCV virus titers suppressed (HCV (JFH-1, genotype 2a) [3]): ~99% |
| Cc1ccc(O)c(NC(=O)COc2ccc3c(=O)c(-c4ccccc4)c(C)oc3c2)c1 [N4] | > 100 | > 12.5 | 2.01 | 123 |  |  |
| Cc1ccc(N(Cc2cc3cccc(C)c3nc2O)S(=O)(=O)c2ccccc2)c(C)c1 [N5, N-(2,4-dimethylphenyl)-N-((8-methyl-2-oxo-1,2-dihydroquinolin-3-yl)methyl)benzenesulfonamide] | > 100 | 10.9 | 2.2 |  |  |  |
| CC(C)OC(=O)[C@H](C)N[P@](=O)(OC[C@H]1O[C@@H](n2ccc(=O)[nH]c2=O)[C@](C)(F)[C@@H]1O)Oc1ccccc1 [PSI-7977, sofosbuvir, reference compound] | > 20 | 0.49 |  |  | >40.82 |  |
| Nc1cc(Cn2c(C(=O)NS(=O)(=O)c3ccc(O)cc3)c(-c3ccc[nH]c3=O)c3cc(Cl)ccc32)ccn1 [compound 137] |  |  |  |  |  | IC50 (NS5B polymerase): > 50 µM |
| CCC[C@H](NC(=O)[C@@H]1[C@H]2CCC[C@H]2CN1C(=O)[C@@H](NC(=O)[C@@H](NC(=O)c1cnccn1)C1CCCCC1)C(C)(C)C)C(=O)C(=O)NC1CC1 [telaprevir, reference compound] |  | 0.02 |  |  | >500 | CC50 at 48 h [1]: > 10 µM |
| N-(8-fluoro-4-oxo-1,4-dihydroquinoline-3-carbonyl)-1,2-dimethyl-1H-imidazole-4-sulfonohydrazide [N3] |  |  | 23.8 | 86.1 |  | CC50 (Huh7.5.1 cells): > 100 µM; EC50 (HCV (JFH-1, genotype 2a) [2]): 21.3 µM; pIC50 (HCV NS5B protein; from NS5B inhibition IC50): 4.62; pKD (NS5B protein; from SPR KD): 4.06 |
